3 molecules from patent US12195434B2, “Process for the preparation of a chiral prostaglandin enol intermediate and intermediate compounds useful in the process” (EUROAPI HUNGARY LIMITED LIABILITY COMPANY, priority 2019, dated 2025) can be followed below.

The structures appear in SMILES notation.

This data set is described as follows: solubility of the PPB-enone isomers in crystallization solvents. The data set is classed as physicochemical. How it is done: The solubility (g/100 ml) of the PPB-enone isomers in some of the solvents with which crystallization was attempted is shown below: […]

Take `Cc1cccc([C@@H](C)C(=O)/C=C/[C@@H]2[C@H]3CC(=O)O[C@H]3C[C@H]2OC(=O)c2ccc(-c3ccccc3)cc2)c1` [16-(R)-PPB-enone, [(3aR,4R,5R,6aS)-4-[(E,4R)-4-(m-tolyl)-3-oxo-pent-1-enyl]-2-oxo-3,3a,4,5,6,6a-hexahydrocyclopenta[b]furan-5-yl] 4-phenylbenzoate]: the solubility result was “in-” (DIPE, 23° C.); “in-” (DIPE, Reflux); 0.43 g/100 ml (EtOH, 23° C.); 4.00 g/100 ml (EtOH, Reflux); 0.45 g/100 ml (MeOH, 23° C.); 5.00 g/100 ml (MeOH, Reflux). In addition, the solubility is listed as 0.71 g/100 ml (TBME, 23° C.); 8.00 g/100 ml (TBME, Reflux); 0.18 g/100 ml (iPrOH, 23° C.); 2.22 g/100 ml (iPrOH, Reflux).

`Cc1cccc([C@H](C)C(=O)/C=C/[C@@H]2[C@H]3CC(=O)O[C@H]3C[C@H]2OC(=O)c2ccc(-c3ccccc3)cc2)c1` [16-(S)-PPB-enone, [(3aR,4R,5R,6aS)-4-[(E,4S)-4-(m-tolyl)-3-oxo-pent-1-enyl]-2-oxo-3,3a,4,5,6,6a-hexahydrocyclopenta[b]furan-5-yl] 4-phenylbenzoate]: the solubility entry runs as follows: (DIPE, 23° C.) “insoluble”; (DIPE, Reflux) 0.2 g/100 ml; (EtOH, 23° C.) “insoluble”; (EtOH, Reflux) 0.33 g/100 ml; (MeOH, 23° C.) “insoluble”; (MeOH, Reflux) 0.33 g/100 ml. For the same molecule, the solubility result by setting is: (TBME, 23° C.) “insoluble”; (TBME, Reflux) 0.13 g/100 ml; (iPrOH, 23° C.) “insoluble”; (iPrOH, Reflux) 0.29 g/100 ml.

In the case of `Cc1cccc(C(C)C(=O)/C=C/[C@@H]2[C@H]3CC(=O)O[C@H]3C[C@H]2OC(=O)c2ccc(-c3ccccc3)cc2)c1` (stereo partly drawn) [16-(R,S)-PPB-enone, [(3aR,4R,5R,6aS)-4-[(E)-4-(m-tolyl)-3-oxo-pent-1-enyl]-2-oxo-3,3a,4,5,6,6a-hexahydrocyclopenta[b]furan-5-yl] 4-phenylbenzoate], the solubility entry reads like this: (DIPE, 23° C.) “insoluble”; (DIPE, Reflux) “in-”; (EtOH, 23° C.) “insoluble”; (EtOH, Reflux) 0.77 g/100 ml; (MeOH, 23° C.) “insoluble”; (MeOH, Reflux) 0.91 g/100 ml. For the same molecule, the solubility was 0.14 g/100 ml (TBME, 23° C.); 0.33 g/100 ml (TBME, Reflux); “insoluble” (iPrOH, 23° C.); 0.80 g/100 ml (iPrOH, Reflux).
